What all share (type): cell-based
Test [1] deals with T1, Peroxisome proliferator-activated receptor alpha (Mus musculus) (UniProt P23204).
T1 sequence (whole entry): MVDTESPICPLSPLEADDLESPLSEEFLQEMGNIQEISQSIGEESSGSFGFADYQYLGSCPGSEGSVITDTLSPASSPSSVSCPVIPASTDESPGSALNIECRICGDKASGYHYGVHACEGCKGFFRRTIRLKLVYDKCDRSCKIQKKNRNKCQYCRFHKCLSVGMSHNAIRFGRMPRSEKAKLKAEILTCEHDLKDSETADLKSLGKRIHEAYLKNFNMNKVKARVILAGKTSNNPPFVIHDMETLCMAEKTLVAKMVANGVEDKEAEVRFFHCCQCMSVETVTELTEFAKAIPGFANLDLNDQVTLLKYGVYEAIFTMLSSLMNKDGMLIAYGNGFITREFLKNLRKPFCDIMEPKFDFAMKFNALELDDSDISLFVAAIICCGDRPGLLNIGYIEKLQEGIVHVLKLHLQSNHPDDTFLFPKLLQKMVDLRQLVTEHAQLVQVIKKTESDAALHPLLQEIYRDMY
Put plainly: Transactivation of mouse recombinant PPARalpha expressed in mouse NIH3T3 cells at 5 uM by PPRE activation based dual luciferase reporter gene assay relative to control.

The target of test [2] is T1, Peroxisome proliferator-activated receptor alpha (Mus musculus). The test is described as follows: Transactivation of mouse recombinant PPARalpha expressed in mouse NIH3T3 cells at 0.1 uM to 10 uM by PPRE activation based dual luciferase reporter gene assay relative to control.
Test [3] deals with T2, Peroxisome proliferator-activated receptor delta (Mus musculus) (UniProt P35396).
T2 sequence (whole entry): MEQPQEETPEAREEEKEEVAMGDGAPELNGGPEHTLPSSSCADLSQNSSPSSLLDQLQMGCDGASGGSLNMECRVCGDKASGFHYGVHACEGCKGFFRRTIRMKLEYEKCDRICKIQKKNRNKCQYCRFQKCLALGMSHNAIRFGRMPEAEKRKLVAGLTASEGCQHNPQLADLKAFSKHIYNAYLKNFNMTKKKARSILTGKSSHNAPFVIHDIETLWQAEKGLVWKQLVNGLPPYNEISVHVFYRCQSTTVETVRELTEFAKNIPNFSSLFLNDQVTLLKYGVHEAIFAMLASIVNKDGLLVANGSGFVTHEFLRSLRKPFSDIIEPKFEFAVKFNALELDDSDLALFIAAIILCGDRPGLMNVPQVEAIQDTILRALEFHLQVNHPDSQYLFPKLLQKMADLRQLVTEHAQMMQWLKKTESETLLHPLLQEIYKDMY
The test is described as follows: Transactivation of mouse recombinant PPARbeta expressed in mouse NIH3T3 cells by PPRE activation based dual luciferase reporter gene assay relative to control.

The target of test [4] is T3, Peroxisome proliferator-activated receptor gamma (Mus musculus) (UniProt P37238).
T3 sequence (whole entry): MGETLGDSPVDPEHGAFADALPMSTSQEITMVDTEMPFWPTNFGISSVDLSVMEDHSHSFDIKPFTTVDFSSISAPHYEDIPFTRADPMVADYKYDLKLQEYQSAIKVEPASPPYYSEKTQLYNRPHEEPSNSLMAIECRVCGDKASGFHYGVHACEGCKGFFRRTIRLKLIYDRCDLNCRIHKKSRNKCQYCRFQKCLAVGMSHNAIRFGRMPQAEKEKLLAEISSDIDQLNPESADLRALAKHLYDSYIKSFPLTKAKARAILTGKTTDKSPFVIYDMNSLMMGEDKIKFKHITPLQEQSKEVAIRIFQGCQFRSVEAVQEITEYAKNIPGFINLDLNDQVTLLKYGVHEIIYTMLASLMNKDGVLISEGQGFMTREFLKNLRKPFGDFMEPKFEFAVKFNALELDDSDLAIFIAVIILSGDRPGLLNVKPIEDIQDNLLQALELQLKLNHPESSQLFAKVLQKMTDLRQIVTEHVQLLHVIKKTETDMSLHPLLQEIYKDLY
The test is described as follows: Transactivation of mouse recombinant PPARgamma expressed in mouse NIH3T3 cells by PPRE activation based dual luciferase reporter gene assay relative to control.

Activity calls are given as the source filed them. The calls are words filed in the database; no cut-off is given here.

Turning to `CCCCCCCCCCCCCC[C@@H](O)[C@H](O)[C@@H](CO)NC(=O)[C@H](Cc1ccccc1)NC(=O)OC(C)(C)C`, the result in test [1], in test [2] and in test [4] was Active. For the same compound, in test [3], the Activity result is “Dose-dependent effect”.

`CCCCCCCCCCCCCC[C@H](O)[C@H](O)[C@H](CO)NC(=O)CCCCCCCCCCCCC`: the result in test [1] and in test [4] was Active. Further, the Activity entry in test [3] is “Dose-dependent effect”.

`CCCCCCCCCCCCCC[C@H](O)[C@@H](O)[C@H](CO)NC(=O)[C@H](Cc1ccccc1)NC(=O)OC(C)(C)C`: the result in test [1], in test [2] and in test [4] was Active. In addition, the Activity result in test [3] is “Dose-dependent effect”.

For the compound `CC1(COc2ccc(CC3SC(=O)NC3=O)cc2)CCCCC1` (centres undefined), the outcome in test [4] was Active.

As for `Cc1cccc(Nc2cc(Cl)nc(SCC(=O)O)n2)c1C`, the outcome in test [2] was Active.

In the case of `CCCCCCCCCCCCCC[C@@H](O)[C@@H](O)[C@@H](CO)NC(=O)CBr`, in test [4], the outcome was Active.

Regarding `CCCCCCCCCCCCCC[C@@H](O)[C@H](O)[C@H](CO)NC(=O)CCCCCCCCCCCCC`, the outcome in test [1] and in test [4] was Active. The Activity entry in test [3] was “Dose-dependent effect”.

As to `CCCCCCCCCCCCCC[C@@H](O)[C@@H](O)[C@@H](CO)NC(=O)CCCCCCCCCCCCC`, the result in test [1] and in test [4] was Active. Also, the Activity result in test [3] is “Dose-dependent effect”.

Consider `CCCCCCCCCCCCCC[C@H](O)[C@H](O)[C@@H](CO)NC(=O)[C@H](Cc1ccccc1)NC(=O)OC(C)(C)C`, for which the result in test [1], in test [2] and in test [4] was Active. Further, the Activity result in test [3] is “Dose-dependent effect”.

(Values after ChEMBL document CHEMBL1153926, “Evaluation of synthetic sphingolipid analogs as ligands for peroxisome proliferator-activated receptors” (Bioorg Med Chem Lett, 2009).)
